Consider 1 molecule from patent US20240342158A1, “METHOD OF TREATING AND/OR PREVENTING TYPE 1 DIABETES WITH CEPHARANTHINE” (ALBERT EINSTEIN COLLEGE OF MEDICINE, priority 2021, published 2024).

Structures are written as SMILES.

Experiment [1] deals with recombinant APS3v-HLA-DR3 (Homo sapiens, UniProt P01903+P01911, A100K/A102G/A103R/F55Y/I96L/K41T/P40S/Q125H/Q178H/Q39Y/R42S/S66N/T106N/W38E/Y61H). The experiment is described as follows: ELISA inhibition assay of biotinylated peptide binding to recombinant APS3v-HLA-DR3. How it is done:
An in vitro binding assay was performed. […] On the day before the immunoassay was performed, a 96-well DELFIA yellow plate (PerkinElmer Life Science) was coated overnight with 20 μg/ml of L243 antibody [Hybridoma was purchased from ATCC, catalogue number HB-55, and IgG was purified by QED Bioscience (San Diego, CA)] in bicarbonate buffer, pH 9.6 (Sigma-Aldrich). L243 is a monoclonal antibody that specifically recognizes the DRa chain of HLA-DR when it is properly folded and complexed with the b chain. The plate was then washed with DELFIA wash buffer (diluted 1:25 from DELFIA wash concentrate, PerkinElmer) to wash off the excess L243 antibody. Blocking was performed using 2.5% BSA in PBS at room temperature for 1 h. After washing 4 times, 100 μl of the pre-incubated mix (containing recombinant APS3v-HLA-DR3 protein, APO, and small molecules) were added onto the plate and shaken at slow speed for 2 h at room temperature. After washing 4 times, DELFIA Europium-labeled streptavidin (PerkinElmer) diluted in DELFIA assay buffer (PerkinElmer) was added for 30 min and shaken at slow speed at room temperature. After washing for 6 times, DELFIA Enhancement Solution was added for 1 h until the optimal signal was reached. Time-resolved fluorescence was measured using the BMG reader (BMG Labtech, Cary, NC). A virtual screen identified 100 small molecules that were predicted to block the unique APS3v-HLA-DR3 pocket. To produce a manageable selection of compounds for validation we clustered the 100 compounds by their simplified molecular input line entry system (SMILES) similarity into 20 clusters. Of the 20 clusters we selected the top scoring members in each cluster. We have enhanced this list to include a total of 11 compounds that blocked APS3v-HLA-DR3, the key HLA-DR3 pocket that triggers APS3v. We tested the selected 11 small molecules identified by the virtual screen in our in vitro ELISA, to test whether the 11 small molecules can block APO peptide (the strongest known peptide binder to HLA-DR3) binding to recombinant APS3v-HLA-DR3. Of the 4 validated small molecules we selected S53 for further testing because it is the only one that has been used in humans before. […] ELISA was performed as previously described.
A general note: In an ELISA, binding on a coated surface is turned into a signal by an enzyme label.

Another experiment relates to humanized NOD-DR3 mice. The experiment can be described thus: Free T4 and anti-mouse Tg antibody levels in cepharanthine-treated immunized mice. Conditions: data not shown. The format is in vivo. How it is done: Autoantibody Measurements: Sera were collected from mice upon sacrifice and stored in −20° C. Nunc™ Maxisorp™ ELISA plate (Thermo Fisher Scientific, Waltham, MA) was coated with 10 μg/ml of either Tg.1571, GAD.492, TPO.758 or mouse Tg in bicarbonate buffer (Sigma-Aldrich) at pH 9.6 and incubated overnight. The ELISA plate was washed 4 times with PBS supplemented with 0.05% Tween (Sigma-Aldrich) [PBST]. After blocking with 2.5% BSA in PBST for 1 h at 37° C., the plate was washed with PBST for 6 times. 100 μl of the diluted sera (1:100 in 0.5% BSA/PBS) was added for 2 h with slow shaking at room temperature. After washing for 6 times with PBST, anti-mouse IgG secondary antibody (Sigma-Aldrich) was added at 1:30,000 dilution in 1% BSA/PBST and incubated for 30 min at 37° C. After washing the plate for 4 times with PBST, the freshly prepared paranitrophenylphosphate substrate (Sigma-Aldrich) was added for 1 h and the plate was read at 405 nm using the BMG reader (BMG Labtech, Cary, NC).
Free T4 Measurements: Sera were collected from mice and were assayed for free thyroxin (fT4) measurements using free thyroxine ELISA kit (Alpha Diagnostic International, San Antonio, TX, catalog no. 1110). Assay was performed according to manufacturer's protocol. […] Absorbance at 450 nm was measured using a BMG ELISA reader (BMG Labtech). […]

recombinant APS3v-HLA-DR3, sequence (P01911 30-227 W38E/Q39Y/P40S/K41T/R42S/F55Y/Y61H/S66N/I96L/A100K/A102G/A103R/T106N/Q125H/Q178H): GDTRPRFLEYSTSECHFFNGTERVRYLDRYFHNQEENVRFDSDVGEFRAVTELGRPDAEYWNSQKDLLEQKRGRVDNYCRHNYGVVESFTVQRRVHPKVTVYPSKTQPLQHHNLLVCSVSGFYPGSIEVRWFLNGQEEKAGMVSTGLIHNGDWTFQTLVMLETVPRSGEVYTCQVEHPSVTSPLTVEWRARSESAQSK
recombinant APS3v-HLA-DR3, sequence (P01903 26-216): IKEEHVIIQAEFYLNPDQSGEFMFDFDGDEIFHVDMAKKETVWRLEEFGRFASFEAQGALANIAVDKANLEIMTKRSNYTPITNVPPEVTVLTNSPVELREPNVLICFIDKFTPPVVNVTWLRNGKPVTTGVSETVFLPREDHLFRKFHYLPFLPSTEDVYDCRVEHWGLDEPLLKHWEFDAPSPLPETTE

For `COc1ccc2cc1Oc1ccc(cc1)C[C@H]1c3c(cc4c(c3Oc3cc5c(cc3OC)CCN(C)[C@@H]5C2)OCO4)CCN1C` [S53, Cepharanthine], the “inhibition of binding of the 3 peptides (TPO.758, GAD.492, Tg.1571) to the HLA-DR3 pocket” value in experiment [1] (ELISA inhibition assay, final concentration 0.4 mM) is given as “significant inhibition of binding for all 3 peptides”. Further, in experiment [1] (decreasing doses 0.4 mM, 0.2 mM, 0.1 mM, 0.05 mM), the “blocking of binding of biotinylated APO, TPO.758, GAD.492 and Tg.1571 to APS3v-HLA-DR3” value is “blocked the binding of each peptide in a dose-dependent manner”. Besides, in the experiment with humanized NOD-DR3 mice, the “antibody levels against mouse Tg” value is “did not significantly affect” and the “free T4 levels” value is listed as “did not significantly affect”.
